Reference: US20250319115A1, “Compositions and Methods for Modulating Cytokines” (Flagship Pioneering Innovations VII, LLC, priority 2022, published 2025)

Experiments:
IL-4 signaling pathway = test: HEK-Blue IL-4 SEAP reporter assay; assay type: cell-based
Procedure: (§1) The effects of putative inhibitors on pro-inflammatory cytokine pathways are assessed using HEK-Blue cells engineered for the detection of bioactive cytokines via activation of JAK/STAT pathways and subsequent expression of the SEAP reporter gene. Cells are treated with their relevant cytokines+/−peptides or control antibodies, and 20 hours after treatment activation of the relevant cytokine receptor is determined via SEAP expression through mixing cell supernatants with a Quanti-Blue colorimetric reagent and measuring optical density at 600 nm.
Reporter lines HEK-Blue TL-4/TL-15/IFN-alpha were cultured in DMEM with GlutaMAX and 10% HI FBS (Gibco). Cells were seeded into black 96-well optical clear flat-bottomed PhenoPlates at densities of 25000 cells/well and 100 uL/well and allowed to rest overnight in a 37 C incubator with 5% CO2. After 24 hours, cells were treated with 10 μL of their relevant cytokines (StemCell Technologies) at the previously determined EC75 for activation (1.164 ng/mL for HEK-Blue IL-4, 2.26 ng/mL for HEK-Blue IL-15, and 0.456 ng/mL for HEK-Blue IFN-alpha), with or without 10 μL of peptides (5 uM final concentration) or control antibodies (1 ug/well). Cells were kept overnight in a 37 C incubator with 5% C02.
20-22 hours after treatment, 20 μL of the cell supernatants were collected and transferred to 96-well white flat opaque-bottom plates (Costar) and each sample was mixed with 180 μL of Quanti-Blue reagent. Colorimetric reactions were allowed to develop in a 37 C incubator with 5% C02 for a certain duration of time (3 hours for HEK-Blue IL-4, 2 hours for HEK-Blue IL-15, and 1 hour for IFN-alpha). Assay plates were then removed from the incubator and the optical density of each well was measured at 600 nm on a GloMax plate reader. Relative activation of the cytokine signaling pathway in question was determined by ratioing the optical density of each sample to the average optical density for the cytokine-only treated cells from the same plate.

IL-15 signaling pathway = test: HEK-Blue IL-15 SEAP reporter assay; assay type: cell-based
Procedure: as §1
(§2) Reporter lines HEK-Blue TL-4/TL-15/IFN-alpha were cultured in DMEM with GlutaMAX and 10% HI FBS (Gibco). […] After 24 hours, cells were treated with 10 μL of their relevant cytokines (StemCell Technologies) at the previously determined EC75 for activation (1.164 ng/mL for HEK-Blue IL-4, 2.26 ng/mL for HEK-Blue IL-15, and 0.456 ng/mL for HEK-Blue IFN-alpha), with or without 10 μL of peptides (5 uM final concentration) or control antibodies (1 ug/well). […]
(§3) 20-22 hours after treatment, 20 μL of the cell supernatants were collected and transferred to 96-well white flat opaque-bottom plates (Costar) and each sample was mixed with 180 μL of Quanti-Blue reagent. […] Assay plates were then removed from the incubator and the optical density of each well was measured at 600 nm on a GloMax plate reader. […]

[1] = test system: IFN-alpha signaling pathway; test: HEK-Blue IFN-alpha SEAP reporter assay; assay type: cell-based
Procedure: as §1, §2, §3

[2] = test system: Interferon Regulatory Factor (IRF) pathway; test: Dual Reporter Assay: NF-kB-SEAP and IRF-Lucia luciferase reporter monocyte (THP1) cells +/- TLR agonists; assay type: cell-based, human
Procedure: (§4) To determine the effect of the Target Protein on TLR activity, the Target Protein, irrelevant proteins, and controls were applied+/−established TLR agonists to a commercial reporter cell line which monitors the two main signal transduction pathways that respond to TLR activation. To determine which primary, human, immune cells are most responsive to the Target Proteins, the Target Proteins were applied to Peripheral Blood Mononuclear Cells (PBMCs) and then 24 hours later the PBMCs were subjected to single cell RNA-seq.
Dual Reporter Assay: NF-kB-SEAP and IRF-Lucia luciferase reporter monocyte (THP1) cells (InvivoGen) are cultured in RPMI 1640 media supplemented with HEPES buffer (10 mM), sodium pyruvate (1 mM), glucose (4.5 g/L), fetal bovine serum (10%), penicillin (100 U/mL), streptomycin ([…]), and 2-mercaptoethanol (0.05 mM). THP1 cells are treated with 100 ng/mL LPS (Sigma-Aldrich) for 24 hrs, the target protein (final conc. 10 μM), or left untreated.
After treatment, THP1 cells are cultured for 24 hrs and then assayed for reporter activity. Both reporter proteins are measurable in the cell culture supernatant when using QUANTI-Blue (InvivoGen), a SEAP detection reagent, and QUANTI-Luc (InvivoGen), a luciferase detection reagent. QUANTI-Blue is a colorimetric enzyme assay developed to determine any alkaline phosphatase activity in a biological sample, such as cell culture supernatant. QUANTI-Luc is a lyophilized assay reagent containing all the components required to quantitatively measure the activity of Lucia Luciferase other coelenterazine-utilizing luciferases. Increased reporter activity after treatment with target protein is observed in cells where the target protein is immune stimulating. Additionally, decreased reporter activity after treatment with the target protein is observed in cells where the target protein is immune dampening.
To determine the effect of the Target Protein on TLR activity, the Target Protein, irrelevant proteins and controls were applied+/−established TLR agonists to a commercial reporter cell line which monitors the two main signal transduction pathways that respond to TLR activation. To determine which primary, human, immune cells are most responsive to the Target Proteins, the Target Proteins were applied to Peripheral Blood Mononuclear Cells (PBMCs) and then 24 hours later the PBMCs were subjected to single cell RNA-seq.

[3] = test system: Peripheral Blood Mononuclear Cells (PBMCs); test: single cell RNA-seq of PBMCs treated with target protein; assay type: cell-based, human; conditions: 10 μM, 24 hours, vs scrambled protein control
Procedure: as §4
scRNA-seq: From example: Shifts in cell populations after treatment with Target Proteins are assessed by single cell RNA-seq (scRNA-seq). Target proteins (e.g., listed in Table 1) are synthesized through Fluorenylmethyloxycarbonyl (Fmoc) protection group chemistry using Solid Phase Peptide Synthesis (SPPS). […]
Post sequencing, reads are aligned to the human reference genome (GENCODE34/GRCH38). Reads are demultiplexed using DNA-barcoded antibodies and run through quality control (g. doublets are removed, singlet cells are selected with less than 15% mitochondria contamination at RNA levels and reads contain higher than 500 genes). […]
scRNA-seq: From example: Shifts in cell populations after treatment with Target Proteins are assessed by single cell RNA-seq (scRNA-seq). […]

[4] = peptide 5 uM, cytokine at EC75, SEAP OD 600 nm
[5] = THP-1 dual reporter cells, protein 10 μM vs scramble protein, 24 hours

Substance: SEQ ID NO: 1238_L8V: novel peptide capable of inhibiting pro-inflammatory cytokine pathways (LVVRWAVVVFRSSTAALPRAAEAARRSEKWPKTSALGRRS; listed as Homo sapiens)
- inhibitor of the IL-4 signaling pathway (grade in words) (IL-4 signaling pathway; FIG. 9): strong
- Relative activity (compared to cytokine only controls), Cytokine IL-15 (IL-15 signaling pathway; [4]): −70%

Substance: SEQ ID NO: 3915: novel peptide capable of activating the signaling pathway for IFN-alpha (LRRAIWGLLCLMVAEENQEASLRKLAVRRKFWRLGRATQRYSVAW; listed as Homo sapiens)
- activator of the IFN-alpha signaling pathway (grade in words) ([1]; FIG. 11): moderate activator
- Relative activity (compared to cytokine only controls), Cytokine IFN-a [1, 4]: +40%

Substance: SEQ ID NO: 6091: novel peptide capable of inhibiting pro-inflammatory cytokine pathways (IFLFLPIFSFPQIFLLLFYHLE; listed as Homo sapiens)
- Relative activity (compared to cytokine only controls), Cytokine IL-4 (IL-4 signaling pathway; [4]): −40%
- inhibitor of the IL-15 signaling pathway (grade in words) (IL-15 signaling pathway; FIG. 10): strong inhibitor

Substance: SEQ ID NO: 6516: novel, secreted peptide that inhibits the innate immune response caused by toll-like receptor agonists (MAAPSNKTELAWSPRLAA; listed as Homo sapiens)
- relative IRF activity (reporter gene expression) ([2]; THP-1 dual reporter cells, peptide 0, 2.5, 5, 7.5, and 10 μM in the presence of LPS, 24 hours): inhibition
- IRF response, co-treated with TLR1/2 agonist [2, 5]: inhibited
- IRF response, co-treated with TLR2 agonist [2, 5]: no significant effect
- IRF response, co-treated with TLR3 agonist [2, 5]: no significant effect
- IRF response, co-treated with TLR4 agonist [2, 5]: inhibited
- IRF response, co-treated with TLR5 agonist [2, 5]: no significant effect
- IRF response, co-treated with TLR6/2 agonist [2, 5]: inhibited
- IRF response, co-treated with TLR7 agonist [2, 5]: no significant effect
- IRF response, co-treated with TLR8 agonist [2, 5]: no significant effect
- IRF response, co-treated with TLR9 agonist [2, 5]: no significant effect
- IRF signal transduction pathway response from several TLRs ([2]; reporter cell line +/- TLR agonists): significantly blocks
- effect on T-cells, B-cells, and NK-cells (up/downregulated genes, scRNA-seq) [3]: relatively small effects
- effect on active monocytes and dendritic cells (up/downregulated genes, scRNA-seq) [3]: strongly affected
